According to article PMC10746543, “Design principles for cyclin K molecular glue degraders” (Nature Chemical Biology, 2023):
Several values for one entry are separate records, joined by “and”; a condition that tells them apart may be missing. Equal values may be shown once. Read-outs that look alike come from different tables or passages of the source.

Columns and labels:
[1] = target: T1, CDK12–cyclin K and DDB1 (Homo sapiens, UniProt Q16531+Q9NYV4, K965R); experiment: TR-FRET ternary complex formation assay (compound titration); format: binding
T1 construct: His6–CDK12 (a.a. 713–1,052); full-length or beta-propeller B domain deletion (ΔBPB: a.a. 396–705 deleted) constructs of His6–DDB1ΔBPB, StrepII–Avi–DDB1, or His6–Spy–DDB1; made in house; host or cells: Trichoplusia ni High Five insect cells (baculovirus)
How it was run: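 Delayed (70 μs) time-resolved read; FRET computed as 520 nm over 490 nm emission.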

[2] = target: T2, CDK13 (Homo sapiens, UniProt Q14004+Q16531); experiment: Label-free quantitative mass spectrometry in MDA-MB-231 cells, CDK13; format: cell-based
T2 construct: endogenous in cells; host or cells: MDA-MB-231
T2 sequence (Q14004 whole entry): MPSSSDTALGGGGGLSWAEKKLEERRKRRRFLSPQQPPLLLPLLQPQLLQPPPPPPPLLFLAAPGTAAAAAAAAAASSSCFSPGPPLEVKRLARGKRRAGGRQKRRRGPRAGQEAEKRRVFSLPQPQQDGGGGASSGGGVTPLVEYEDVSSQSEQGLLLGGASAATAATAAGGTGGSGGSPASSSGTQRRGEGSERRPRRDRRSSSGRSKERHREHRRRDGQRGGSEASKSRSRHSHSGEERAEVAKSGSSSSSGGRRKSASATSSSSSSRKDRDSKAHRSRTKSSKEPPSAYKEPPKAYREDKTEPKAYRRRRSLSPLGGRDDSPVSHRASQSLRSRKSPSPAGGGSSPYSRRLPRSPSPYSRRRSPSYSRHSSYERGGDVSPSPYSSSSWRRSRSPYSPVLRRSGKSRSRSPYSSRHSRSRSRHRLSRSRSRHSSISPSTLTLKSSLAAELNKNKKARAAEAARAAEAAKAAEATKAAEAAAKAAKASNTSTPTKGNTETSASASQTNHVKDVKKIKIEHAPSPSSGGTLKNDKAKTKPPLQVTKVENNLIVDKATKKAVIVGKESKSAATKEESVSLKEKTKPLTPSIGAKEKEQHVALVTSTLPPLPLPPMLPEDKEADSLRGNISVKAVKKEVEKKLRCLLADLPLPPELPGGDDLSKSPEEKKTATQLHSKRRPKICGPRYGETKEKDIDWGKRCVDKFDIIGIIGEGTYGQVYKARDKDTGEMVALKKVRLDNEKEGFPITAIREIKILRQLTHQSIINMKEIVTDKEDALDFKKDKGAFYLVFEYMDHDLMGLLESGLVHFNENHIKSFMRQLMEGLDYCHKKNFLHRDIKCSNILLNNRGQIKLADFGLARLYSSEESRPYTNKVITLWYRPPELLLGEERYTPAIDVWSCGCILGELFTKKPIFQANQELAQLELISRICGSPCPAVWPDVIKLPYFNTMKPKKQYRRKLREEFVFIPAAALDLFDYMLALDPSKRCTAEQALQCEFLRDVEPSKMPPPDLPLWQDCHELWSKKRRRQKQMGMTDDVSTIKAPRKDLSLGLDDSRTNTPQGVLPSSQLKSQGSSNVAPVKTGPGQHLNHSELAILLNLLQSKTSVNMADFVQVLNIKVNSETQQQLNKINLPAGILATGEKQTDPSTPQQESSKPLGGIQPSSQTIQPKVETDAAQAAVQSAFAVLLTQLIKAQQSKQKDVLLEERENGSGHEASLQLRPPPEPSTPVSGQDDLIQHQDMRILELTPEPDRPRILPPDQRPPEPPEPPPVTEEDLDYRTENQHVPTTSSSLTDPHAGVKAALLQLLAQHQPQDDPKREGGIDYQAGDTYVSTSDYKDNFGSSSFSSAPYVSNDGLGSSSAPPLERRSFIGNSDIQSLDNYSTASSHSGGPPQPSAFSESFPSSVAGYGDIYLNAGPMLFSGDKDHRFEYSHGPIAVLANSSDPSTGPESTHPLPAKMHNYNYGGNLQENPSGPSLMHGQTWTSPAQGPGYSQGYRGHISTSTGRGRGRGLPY
T2 sequence (O75909 whole entry partner): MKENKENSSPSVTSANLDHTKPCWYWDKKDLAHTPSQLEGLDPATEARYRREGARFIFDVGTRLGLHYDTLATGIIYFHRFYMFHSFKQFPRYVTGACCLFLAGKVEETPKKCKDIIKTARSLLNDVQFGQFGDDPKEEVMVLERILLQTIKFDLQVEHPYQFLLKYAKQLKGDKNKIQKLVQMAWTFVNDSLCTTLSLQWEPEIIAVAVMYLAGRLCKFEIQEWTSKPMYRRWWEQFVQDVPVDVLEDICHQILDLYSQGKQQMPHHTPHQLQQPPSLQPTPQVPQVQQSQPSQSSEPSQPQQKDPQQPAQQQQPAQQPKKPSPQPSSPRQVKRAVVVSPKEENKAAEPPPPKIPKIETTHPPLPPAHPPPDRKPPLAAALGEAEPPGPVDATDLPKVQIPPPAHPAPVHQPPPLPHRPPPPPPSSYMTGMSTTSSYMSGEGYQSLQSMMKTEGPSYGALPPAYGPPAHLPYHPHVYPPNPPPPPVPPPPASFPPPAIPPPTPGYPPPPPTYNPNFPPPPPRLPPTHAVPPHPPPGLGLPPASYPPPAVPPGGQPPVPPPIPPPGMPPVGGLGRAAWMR
T2 sequence (Q16531 2-1140 limits assumed): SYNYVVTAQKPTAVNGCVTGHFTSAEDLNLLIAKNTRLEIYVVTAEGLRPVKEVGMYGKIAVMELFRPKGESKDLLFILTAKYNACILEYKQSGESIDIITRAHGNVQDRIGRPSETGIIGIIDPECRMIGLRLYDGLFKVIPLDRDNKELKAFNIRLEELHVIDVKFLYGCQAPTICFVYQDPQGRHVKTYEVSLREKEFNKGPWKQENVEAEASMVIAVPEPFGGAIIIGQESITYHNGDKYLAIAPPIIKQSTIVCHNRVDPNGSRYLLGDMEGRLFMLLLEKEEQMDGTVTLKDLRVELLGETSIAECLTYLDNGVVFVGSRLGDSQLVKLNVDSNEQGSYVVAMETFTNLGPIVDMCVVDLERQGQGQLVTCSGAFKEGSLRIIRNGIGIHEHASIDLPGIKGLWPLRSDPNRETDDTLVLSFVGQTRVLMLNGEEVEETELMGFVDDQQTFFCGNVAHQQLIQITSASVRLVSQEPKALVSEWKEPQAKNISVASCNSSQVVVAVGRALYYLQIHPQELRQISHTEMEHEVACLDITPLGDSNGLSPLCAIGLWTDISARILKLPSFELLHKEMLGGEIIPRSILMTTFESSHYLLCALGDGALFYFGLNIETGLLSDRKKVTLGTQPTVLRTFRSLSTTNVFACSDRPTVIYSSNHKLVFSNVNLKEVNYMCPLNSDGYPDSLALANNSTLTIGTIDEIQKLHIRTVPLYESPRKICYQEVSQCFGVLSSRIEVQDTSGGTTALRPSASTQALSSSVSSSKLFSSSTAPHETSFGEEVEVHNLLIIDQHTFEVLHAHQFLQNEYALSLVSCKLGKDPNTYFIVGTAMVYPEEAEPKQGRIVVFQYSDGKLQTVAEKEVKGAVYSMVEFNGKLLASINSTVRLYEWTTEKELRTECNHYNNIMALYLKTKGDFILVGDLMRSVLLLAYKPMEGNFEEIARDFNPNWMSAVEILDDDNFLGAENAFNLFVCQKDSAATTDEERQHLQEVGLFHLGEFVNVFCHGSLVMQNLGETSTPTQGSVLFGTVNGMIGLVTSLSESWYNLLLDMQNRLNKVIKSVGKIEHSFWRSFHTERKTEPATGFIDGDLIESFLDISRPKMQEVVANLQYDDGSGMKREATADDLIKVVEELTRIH
How it was run: (§1)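 MDA-MB-231 cells treated 5 h with 1 µM cyclin K degrader or DMSO. Lysates digested with LysC and trypsin, then analysed by label-free diaPASEF LC-MS on a TimsTOF Pro2 with directDIA search and MS1 precursor quantification. Protein abundances scaled and analysed with limma.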

[3] = target: T3, CDK2–cyclin A (Homo sapiens, UniProt P24941); experiment: Lanthascreen kinase binding assay, CDK2; details: for Lanthascreen signal, sheet CDK2: raw replicates
T3 construct: purchased Thermo Fisher
Method: Lanthascreen experiments were performed using commercially available reagents (Thermo Fisher) and according to the manufacturer’s instructions.

[4] = target: T4, CDK12 (Homo sapiens, UniProt Q16531+Q9NYV4); experiment: Label-free quantitative mass spectrometry in MDA-MB-231 cells, CDK12; format: cell-based
T4 construct: endogenous in cells; host or cells: MDA-MB-231
T4 sequence (Q9NYV4 whole entry): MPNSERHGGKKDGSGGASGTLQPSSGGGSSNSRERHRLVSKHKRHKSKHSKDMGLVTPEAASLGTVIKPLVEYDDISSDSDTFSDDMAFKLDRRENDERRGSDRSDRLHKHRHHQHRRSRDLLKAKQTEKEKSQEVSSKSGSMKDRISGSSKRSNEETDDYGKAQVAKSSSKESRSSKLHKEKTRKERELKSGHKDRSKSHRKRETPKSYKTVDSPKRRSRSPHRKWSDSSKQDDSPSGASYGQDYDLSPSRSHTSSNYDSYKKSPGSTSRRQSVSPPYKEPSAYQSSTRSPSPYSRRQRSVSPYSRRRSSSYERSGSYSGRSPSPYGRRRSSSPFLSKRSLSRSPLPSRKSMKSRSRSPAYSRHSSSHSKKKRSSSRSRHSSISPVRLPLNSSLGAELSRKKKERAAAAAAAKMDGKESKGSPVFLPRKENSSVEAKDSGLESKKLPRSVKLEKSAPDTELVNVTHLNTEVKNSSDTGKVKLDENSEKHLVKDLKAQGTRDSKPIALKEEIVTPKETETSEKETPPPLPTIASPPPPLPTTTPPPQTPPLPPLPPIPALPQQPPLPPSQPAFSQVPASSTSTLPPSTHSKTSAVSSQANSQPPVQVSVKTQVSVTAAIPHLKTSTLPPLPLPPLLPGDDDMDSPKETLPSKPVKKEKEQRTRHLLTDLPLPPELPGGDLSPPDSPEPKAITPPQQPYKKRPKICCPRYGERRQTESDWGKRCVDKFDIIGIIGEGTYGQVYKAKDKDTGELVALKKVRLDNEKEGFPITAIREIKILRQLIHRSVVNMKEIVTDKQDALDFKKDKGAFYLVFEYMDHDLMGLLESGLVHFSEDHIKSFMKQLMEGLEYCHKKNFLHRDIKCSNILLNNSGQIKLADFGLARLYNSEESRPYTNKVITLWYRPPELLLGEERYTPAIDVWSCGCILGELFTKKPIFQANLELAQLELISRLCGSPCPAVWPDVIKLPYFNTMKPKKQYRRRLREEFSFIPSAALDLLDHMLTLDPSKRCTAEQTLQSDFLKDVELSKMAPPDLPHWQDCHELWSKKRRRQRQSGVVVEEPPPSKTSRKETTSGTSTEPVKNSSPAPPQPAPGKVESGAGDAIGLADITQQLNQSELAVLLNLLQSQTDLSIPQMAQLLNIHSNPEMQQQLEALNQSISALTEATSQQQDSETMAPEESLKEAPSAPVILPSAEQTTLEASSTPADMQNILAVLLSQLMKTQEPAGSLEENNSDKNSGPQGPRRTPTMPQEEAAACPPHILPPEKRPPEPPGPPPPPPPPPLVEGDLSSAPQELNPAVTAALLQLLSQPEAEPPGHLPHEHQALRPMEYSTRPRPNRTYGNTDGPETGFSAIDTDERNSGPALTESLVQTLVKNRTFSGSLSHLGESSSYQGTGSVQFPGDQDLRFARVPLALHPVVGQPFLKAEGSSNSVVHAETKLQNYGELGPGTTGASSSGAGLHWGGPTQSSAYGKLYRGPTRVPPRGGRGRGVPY
T4 sequence (O75909 whole entry partner): as the sequence (O75909 whole entry partner) above
T4 sequence (Q16531 2-1140 limits assumed): as the sequence (Q16531 2-1140 limits assumed) above
How it was run: as §1

[5] = label-free quantitative MS, replicate values
[6] = normalised to DMSO = 1, replicate values

Compound: Cc1cccc(Nc2nc(CC(=O)Nc3ncc(C)s3)cs2)n1 [HQ461]
- TR-FRET signal ([1]; compound concentration 0.468 nM): 0.1979 and 0.1985 and 0.1957
- TR-FRET signal ([1]; compound concentration 2.16 nM): 0.2749 and 0.2453 and 0.2785
- TR-FRET signal ([1]; compound concentration 3.6 nM): 0.4419 and 0.4117 and 0.4333 and 0.5417 and 0.5175
- TR-FRET signal ([1]; compound concentration 7.92001 nM): 0.7305 and 0.6786 and 0.7304
- TR-FRET signal ([1]; compound concentration 15.84 nM): 1.213 and 1.144 and 1.137 and 1.215 and 1.133
- TR-FRET signal ([1]; compound concentration 30.96 nM): 1.762 and 1.75 and 1.847
- TR-FRET signal ([1]; compound concentration 62.6401 nM): 2.4486 and 2.52 and 2.516 and 2.475 and 2.32
- TR-FRET signal ([1]; compound concentration 125.28 nM): 3.077 and 3.1244 and 3.038
- TR-FRET signal ([1]; compound concentration 244.8 nM): 3.496 and 3.492 and 3.484 and 3.752 and 3.554
- TR-FRET signal ([1]; compound concentration 993.601 nM): 3.886 and 3.922 and 3.8902 and 4.115 and 3.832
- TR-FRET signal ([1]; compound concentration 2001.6 nM): 3.927 and 3.936 and 3.967 and 4.085 and 3.674
- EC50 ([1]; in vitro complex formation, 50 nM CDK12–cyclin K, 100 nM DDB1, text and figures, read-out: TR-FRET EC50): 43 ± 13 nM
- EC50 ([1]; sheet MOESM7, read-out: log TR-FRET EC50 (converted)): 42.7 nM
- EC50 ([1]; source data sheet correlations, read-out: TR-FRET EC50): 42.7 nM
- CDK13 peptide count [2, 5]: 467.381 and 369.821
- CDK13 peptide count (DMSO-normalised) [2, 6]: 0.6953 and 0.5683
- Lanthascreen signal, sheet CDK2 ([3]; Compound 0.038147 nM, experiment r13-r23): 0.01269 and 0.01279
- Lanthascreen signal, sheet CDK2 ([3]; Compound 0.152588 nM, experiment r13-r23): 0.01374 and 0.01273
- Lanthascreen signal, sheet CDK2 ([3]; Compound 0.610352 nM, experiment r13-r23): 0.01372 and 0.01331
- Lanthascreen signal, sheet CDK2 ([3]; Compound 1.02544 nM, experiment r1-r11): 0.009631 and 0.01041
- Lanthascreen signal, sheet CDK2 ([3]; Compound 3.15521 nM, experiment r1-r11): 0.01056 and 0.008974
- Lanthascreen signal, sheet CDK2 ([3]; Compound 9.46563 nM, experiment r1-r11): 0.009472 and 0.0097
- Lanthascreen signal, sheet CDK2 ([3]; Compound 9.76563 nM, experiment r13-r23): 0.01395 and 0.01369
- Lanthascreen signal, sheet CDK2 ([3]; Compound 31.5521 nM, experiment r1-r11): 0.0114 and 0.01012
- Lanthascreen signal, sheet CDK2 ([3]; Compound 39.0625 nM, experiment r13-r23): 0.01257 and 0.0126
- Lanthascreen signal, sheet CDK2 ([3]; Compound 99.3891 nM, experiment r1-r11): 0.01033 and 0.009406
- Lanthascreen signal, sheet CDK2 ([3]; Compound 156.25 nM, experiment r13-r23): 0.01318 and 0.01113
- Lanthascreen signal, sheet CDK2 ([3]; Compound 315.521 nM, experiment r1-r11): 0.009414 and 0.009861
- Lanthascreen signal, sheet CDK2 ([3]; Compound 625 nM, experiment r13-r23): 0.01295 and 0.0131
- Lanthascreen signal, sheet CDK2 ([3]; Compound 2500 nM, experiment r13-r23): 0.01303 and 0.01312
- Lanthascreen signal, sheet CDK2 ([3]; Compound 3155.21 nM, experiment r1-r11): 0.008384 and 0.008441
- Lanthascreen signal, sheet CDK2 ([3]; Compound 10000 nM, experiment r13-r23): 0.01252 and 0.01202
- Lanthascreen signal, sheet CDK2 ([3]; Compound 10002 nM, experiment r1-r11): 0.01042 and 0.01107
- IC50 ([3]; Lanthascreen, read-out: CDK2 inhibition): > 10000 nM
- IC50 ([3]; Supplementary Table 2, read-out: Lanthascreen IC50 [nM] CDK2): > 10000 nM
- CDK12 peptide count [4, 5]: 703.981 and 744.171
- CDK12 peptide count (DMSO-normalised) [4, 6]: 0.7821 and 0.7686
